Reference: ChEMBL document CHEMBL5108051, “Improving the Antimicrobial Performance of Amphiphilic Cationic Antimicrobial Peptides Using Glutamic Acid Full-Scan and Positive Charge Compensation Strategies” (J Med Chem, 2022)
≈ marks a conversion by molar mass, not a printed value. Peptide text beside a SMILES is read from it.

Assays:
Bacillus subtilis = assay: Antibacterial activity against Bacillus subtilis ATCC 23857 assessed as growth inhibition measured after 18 to 24 hrs by CLSI based broth microdilution method; assay type: functional; conditions: time 18-24 hrs
Erythrocyte = assay: Hemolytic activity against mouse RBC measured after 1 hrs; assay type: toxicity, cell-based
Pseudomonas aeruginosa = assay: Antibacterial activity against Pseudomonas aeruginosa ATCC 27853 assessed as growth inhibition measured after 18 to 24 hrs by CLSI based broth microdilution method; assay type: functional; conditions: time 18-24 hrs
Escherichia coli = assay: Antibacterial activity against Escherichia coli ATCC 25922 assessed as growth inhibition measured after 18 to 24 hrs by CLSI based broth microdilution method; assay type: functional; conditions: time 18-24 hrs
Klebsiella pneumoniae = assay: Antibacterial activity against Klebsiella pneumoniae ATCC 700603 assessed as growth inhibition measured after 18 to 24 hrs by CLSI based broth microdilution method; assay type: functional; conditions: time 18-24 hrs
Staphylococcus aureus = assay: Antibacterial activity against Staphylococcus aureus ATCC 25923 assessed as growth inhibition measured after 18 to 24 hrs by CLSI based broth microdilution method; assay type: functional; conditions: time 18-24 hrs

| Compound | MIC (Bacillus subtilis) [µM] | MHC10 (Erythrocyte) [µM] | MIC (Pseudomonas aeruginosa) [µM] | MIC (Escherichia coli) [µM] | MIC (Klebsiella pneumoniae) [µM] | MIC (Staphylococcus aureus) [µM] |
| --- | --- | --- | --- | --- | --- | --- |
| CC[C@H](C)[C@H](NC(=O)[C@@H]1CCCN1C(=O)[C@H](CC(C)C)NC(=O)[C@@H](N)Cc1ccccc1)C(=O)N[C@H](C(=O)N[C@@H](C)C(=O)N[C@@H](CCCCN)C(=O)N[C@@H](CC(C)C)C(=O)N[C@@H](CCC(=O)O)C(=O)N[C@@H](CO)C(=O)NCC(=O)N[C@@H](CC(C)C)C(=O)N[C@@H](CC(C)C)C(N)=O)C(C)C (H-FLPIVAKLESGLL-NH2) | > 128 | > 256 | > 128 | > 128 | > 128 | > 128 |
| CC[C@H](C)[C@H](NC(=O)[C@@H]1CCCN1C(=O)[C@H](CC(C)C)NC(=O)[C@@H](N)Cc1ccccc1)C(=O)N[C@H](C(=O)N[C@@H](C)C(=O)N[C@@H](CCCCN)C(=O)N[C@@H](CC(C)C)C(=O)N[C@@H](CC(C)C)C(=O)N[C@@H](CCC(=O)O)C(=O)NCC(=O)N[C@@H](CC(C)C)C(=O)N[C@@H](CC(C)C)C(N)=O)C(C)C (H-FLPIVAKLLEGLL-NH2) | 16 (≈ 22.8 µg/mL) | 69.93 | > 128 | > 128 | > 128 | 16 (≈ 22.8 µg/mL) |
| CC[C@H](C)[C@H](NC(=O)[C@@H]1CCCN1C(=O)[C@H](CC(C)C)NC(=O)[C@@H](N)Cc1ccccc1)C(=O)N[C@H](C(=O)N[C@@H](C)C(=O)N[C@@H](CCCCN)C(=O)N[C@@H](CC(C)C)C(=O)N[C@@H](CC(C)C)C(=O)N[C@@H](CCCCN)C(=O)NCC(=O)N[C@@H](CC(C)C)C(=O)N[C@@H](CC(C)C)C(N)=O)C(C)C (H-FLPIVAKLLKGLL-NH2) | 4 (≈ 5.7 µg/mL) | 27.66 | > 128 | > 128 | > 128 | 8 (≈ 11.4 µg/mL) |
| CC[C@H](C)[C@H](NC(=O)[C@@H]1CCCN1C(=O)[C@H](CC(C)C)NC(=O)[C@@H](N)Cc1ccccc1)C(=O)N[C@H](C(=O)N[C@@H](C)C(=O)N[C@@H](CCCCN)C(=O)N[C@@H](CC(C)C)C(=O)N[C@@H](CC(C)C)C(=O)N[C@@H](CO)C(=O)N[C@@H](CCC(=O)O)C(=O)N[C@@H](CC(C)C)C(=O)N[C@@H](CC(C)C)C(N)=O)C(C)C (H-FLPIVAKLLSELL-NH2) | 8 (≈ 11.6 µg/mL) | 73.97 | > 128 | > 128 | > 128 | 16 (≈ 23.3 µg/mL) |
| CC[C@H](C)[C@H](NC(=O)[C@@H]1CCCN1C(=O)[C@H](CC(C)C)NC(=O)[C@@H](N)Cc1ccccc1)C(=O)N[C@H](C(=O)N[C@@H](C)C(=O)N[C@@H](CCCCN)C(=O)N[C@@H](CC(C)C)C(=O)N[C@@H](CC(C)C)C(=O)N[C@@H](CO)C(=O)NCC(=O)N[C@@H](CCC(=O)O)C(=O)N[C@@H](CC(C)C)C(N)=O)C(C)C (H-FLPIVAKLLSGEL-NH2) | > 128 | > 256 | > 128 | > 128 | > 128 | > 128 |
| CC[C@H](C)[C@H](NC(=O)[C@@H]1CCCN1C(=O)[C@H](CC(C)C)NC(=O)[C@@H](N)Cc1ccccc1)C(=O)N[C@H](C(=O)N[C@@H](C)C(=O)N[C@@H](CCCCN)C(=O)N[C@@H](CC(C)C)C(=O)N[C@@H](CC(C)C)C(=O)N[C@@H](CO)C(=O)NCC(=O)N[C@@H](CC(C)C)C(=O)N[C@@H](CCC(=O)O)C(N)=O)C(C)C (H-FLPIVAKLLSGLE-NH2) | > 128 | > 256 | > 128 | > 128 | > 128 | > 128 |
| CC[C@H](C)[C@H](NC(=O)[C@@H]1CCCN1C(=O)[C@H](CC(C)C)NC(=O)[C@@H](N)Cc1ccccc1)C(=O)N[C@H](C(=O)N[C@@H](CCC(=O)O)C(=O)N[C@@H](CCCCN)C(=O)N[C@@H](CC(C)C)C(=O)N[C@@H](CC(C)C)C(=O)N[C@@H](CO)C(=O)NCC(=O)N[C@@H](CC(C)C)C(=O)N[C@@H](CC(C)C)C(N)=O)C(C)C (H-FLPIVEKLLSGLL-NH2) | > 128 | > 256 | > 128 | 64 (≈ 92.2 µg/mL) | > 128 | > 128 |
| CC(C)C[C@H](NC(=O)[C@H](CC(C)C)NC(=O)CNC(=O)[C@H](CCC(=O)O)NC(=O)[C@H](CC(C)C)NC(=O)[C@H](CC(C)C)NC(=O)[C@H](CCCCN)NC(=O)[C@H](CCCCN)NC(=O)[C@@H](NC(=O)[C@H](CCCCN)NC(=O)[C@@H]1CCCN1C(=O)[C@H](CC(C)C)NC(=O)[C@@H](N)Cc1ccccc1)C(C)C)C(N)=O (H-FLPKVKKLLEGLL-NH2) | 128 (≈ 192 µg/mL) | > 256 | 32 (≈ 47.9 µg/mL) | 16 (≈ 24 µg/mL) | 64 (≈ 95.8 µg/mL) | 128 (≈ 192 µg/mL) |
